Reference: patent publication US20220225910A1, “Modulating Electron Transfer Kinetics in E-DNA-type Sensors” (The Regents of the University of California, priority 2019, published 2022)
pKd: −log10 of the molar value. Read-outs that look alike come from different tables or passages of the source. {C6SH} = six-carbon thiol for deposition on gold; {MB} = methylene blue redox reporter

Tests used:
E-AB sensor = assay: In vivo control injections, sensor specificity; design: species or system Sprague-Dawley rats; conditions: camptothecin E-AB sensor in live rat, KDM
Excerpt: FIGS. 6A, 6B, and 6C. FIG. 6A depicts signals collected at high (120 Hz) and low (10 Hz) frequencies by a sensor of the invention. […] FIG. 6B: taking the difference (KDM) between the normalized high (120 Hz) and low (10 Hz) frequency signals produces a stable baseline.

[1] = In vivo pharmacokinetic measurement with indwelling E-AB sensor in jugular vein; conditions: rat; for distribution rate (a): intravenous
Experimental: In-vivo measurements. All in vivo measurements were performed using a three-electrode setup in which the counter electrodes were made of platinum wire and the reference electrodes were a silver wire coated with a silver chloride film as described above. The measurements carried out in vivo were recorded using a handheld potentiostat from CH Instruments (Model 1242 B). Square Wave Voltammetry (SWV) was performed using a potential window of −0.1 to −0.45 V, a potential step of 0.001 V and 0.05 V amplitude
For in vivo measurements a 30 min sensor baseline was established before the drug infusion. A 3 mL syringe filled with the target drug was connected to the sensor-free catheter (placed in the jugular opposite that in which the sensor is emplaced) and placed in a motorized syringe pump. […] After drug infusion, recordings were taken for up to 1 hour before the next infusion. The real-time plotting and analysis of voltammetric data were carried out with the help of a script written in Python.
Animals. In vivo measurements were performed in male and female Sprague-Dawley rats (4-5 months old) weighing between 300 and 500 g. All animals were pair housed in a standard light cycle room (08:00 on, 20:00 off) and allowed ad libitum access to food and water. For in vivo measurements rats were induced under 5% isoflurane anesthesia in a Plexiglas anesthesia chamber. The rats were then maintained on 2-3% isoflurane gas for the duration of the experiment. A small incision was made above each vein, then each vein was isolated. A small hole was cut into each vein with spring-loaded microscissors. The silastic catheter inserted into the left jugular vein was constructed with a bent steel cannula with a screw-type connector and silastic tubing (11 cm, i.d. 0.64 mm, o.d. 1.19 mm). […]
where A and B are amplitudes, and […] for distribution and elimination, respectively. […] The area under the curve (AUC) was calculated using the parameters A, B, α and β, because integrating the equation 5 from 0 to infinity, it holds: […]
The clearance (ClT) was calculated by the equation: […]

[2] = E-AB sensor binding curves in flowing undiluted whole blood
Experimental: Titration curves. Experimental titration curves were performed in 10 mL of working buffer (137 mM NaCl, KCl 2.7 mM, Na2HPO4 10 mM, KH2PO4 1.8 mM at pH 7.3) using three E-AB sensors modified with the oligonucleotide probe and using a SWV frequency of 10 and 120 Hz.
The binding curves performed in whole blood were conducted following the previous described experimental approach but using a closed-loop system with a continuous flow of whole blood (total volume of 20 mL at 1 mL/s) through a circulator pump.

[3] = Square wave voltammetry frequency vs signal change (%); format: binding; conditions: aptamer alone on sensor
Excerpt: Square wave voltammetry frequency vs signal change (%) plot. […] Then the estimated signal change (%) was plotted in function of the relative square wave frequency.

[4] = E-AB sensor titration curves in working buffer (square wave voltammetry); format: binding; conditions: simple buffered solution
Experimental: Electrode functionalization. […] This was then dissolved in “assembling buffer” (10 mM Na2HPO4 with 1 M NaCl and 1 mM MgCl2 at pH 7.3) at a final concentration of 500 nM. The electrochemically cleaned gold electrodes were then immersed in 200 μL of this solution for 1 hour in the dark. Following this the electrode surface was rinsed with distilled water and incubated overnight at 4° C. in assembling buffer containing 5 mM 6-mercaptohexanol, followed by a further rinse with distilled water before use. […] These were then dissolved in buffer (10 mM Na2HPO4 with 1 M NaCl and 1 mM MgCl2 at pH 7.3) using different ratio of the two DNA probes. The total oligonucleotide concentration was kept constant at 500 nM to maintain a constant DNA probes packing density. The electrochemically cleaned gold electrodes were then immersed in 200 μL of this solution composed of two DNA probes for 1 hour in the dark. Following this step, the electrode surface was rinsed with distilled water and incubated overnight at 4° C. in assembling buffer containing 5 mM 6-mercaptohexanol, followed by a further rinse with distilled water before use. In-vitro measurements. Electrochemical measurements were performed at room temperature using a CH[…] potentiostat with a CHI684 Multiplexer (CH Instruments, Austin, Tex.) and a standard three-electrode cell containing a platinum counter electrode and a Ag/AgCl (3 M KCl) reference electrode. […] Titration curves. […] Using the values estimated from the previous fitting procedure the raw signal current was converted in signal change % (C%) using the following equation: […]

[5] = Sensor equilibration time; format: binding; conditions: in buffer, clinically relevant concentrations, 500 Hz
Experimental: Sensor equilibration time. The sensor's equilibration time was determined using the above experimental approach and interrogating the sensor every 5 s in working buffer and using a SWV frequency of 500 Hz. […] The observed signal change was fitted to a single exponential decay to obtain the equilibration time constant of the sensor.

[6] = Solution binding of the unmodified aptamer, using the intrinsic fluorescence of irinotecan; conditions: unmodified aptamer free in solution, read-out: dissociation constant
[7] = unstructured 10-base strand; cited from earlier work

Compound | E-AB sensing performance in whole blood [2] | dependence of gain on square-wave frequency [3] | signal gain relative to other variants [4] | further results
O=c1[nH]cc(F)c(=O)[nH]1 [5-fluorouracil] |  |  |  | sensor response to control injection (E-AB sensor): do not produce any measurable sensor response
CCc1c2c(nc3ccc(OC(=O)N4CCC(N5CCCCC5)CC4)cc13)-c1cc3c(c(=O)n1C2)COC(=O)[C@]3(O)CC [irinotecan] |  |  |  | variation in CMAX or the rate of the distribution phase between rats ([1]; both, Sprague-Dawley, in vivo, 20 mg/kg): 10-20%; distribution rate (a) ([1]; 10 mg kg (first value)): 0.58 ± 0.07 min; distribution rate (a) ([1]; 20 mg kg (second value)): 0.48 min
CA16: camptothecin aptamer, only the G-quadruplex binding pocket: 5′-GGGTGGGTGGGTTGGG-3′ (chemistry not given here) | supported high-gain E-AB sensing | only a weak function of square-wave frequency | greatest signal gain | 
CA28: truncated camptothecin aptamer: 5′-CGGACTTGGGTGGGTGGGTTGGGGTACG-3′ (DNA CGGACTTGGGTGGGTGGGTTGGGGTACG; listed as DNA, chemistry not fully specified) | supported high-gain E-AB sensing | only a weak function of square-wave frequency | greatest signal gain | 
CA32: truncated camptothecin aptamer: 5′-TCCGGACTTGGGTGGGTGGGTTGGGGTACGGT-3′ (DNA TCCGGACTTGGGTGGGTGGGTTGGGGTACGGT; listed as DNA, chemistry not fully specified) | supported high-gain E-AB sensing | only a weak function of square-wave frequency | greatest signal gain | 
CA40: 40-base truncation of the known camptothecin-binding DNA aptamer; G-quadruplex flanked by a 12-base-pair stem (DNA ACGCTCCGGACTTGGGTGGGTGGGTTGGGGTACGGTGCGT; DNA, 5' {C6SH}, 3' {MB}, backbone not given here; further chemistry not fully specified) |  |  |  | gain [2]: about 15%; association and dissociation kinetics, time constants [5]: < 5 s; pKd ([6]; listed as parent aptamer): 6.32; pKd [6]: ~6.32
CA40_2MM: camptothecin aptamer, two mismatches: 5′-ACGCTCTGGACTTGGGTGGGTGGGTTGGGGTACGGTGTGT-3′ (DNA ACGCTCTGGACTTGGGTGGGTGGGTTGGGGTACGGTGTGT; listed as DNA, chemistry not fully specified) |  |  | greatest signal gain | 
SEQ ID NO: 8: secondary moiety: unstructured 10-base strand, random sequence of adenines and thymines, reporter-modified (DNA ATTATTTTTT; reporter-modified, reporter and position not given here) |  |  |  | rate of electron transfer [7]: 80 per second
